Laboratory results as given in US20230174526A1, “BENZOTHIAZOLYL BIARYL COMPOUND, AND PREPARATION METHOD AND USE” (SHANGHAI RINGENE BIOPHARMA CO., LTD., priority 2020, published 2023).

Key:
KRAS^G12C/SOS1 = target: T1, KRAS^G12C/SOS1 (Homo sapiens, UniProt P01116, G12C); test: KRAS^G12C/SOS1 protein-protein interaction Binding assay (CisBio kit); details: class symbols
T1 construct: purchased CisBio
Experimental: CisBio’s KRAS^G12C/SOS1 kit was used to test the efficacy of the compound on inhibiting the protein-protein interaction between SOS1 and KRAS^G12Cby Binding assay.Results were expressed as IC50values.
Test methods: (1) the test compound was tested at a concentration of 1000 nM. Diluted to 3-fold diluted compound of a 200-fold final concentration of 100% DMSO solution in a 384-well plate at 10 concentrations. 50 nL of 200-fold final concentration of compound was transferred to the destination plate 384 well plate using a dispenser Echo 550.50 nL of 100% DMSO was added to the negative control wells and positive control wells; (2) 4-fold final concentration of Tag1 SOS1 solution was prepared using Diluent buffer; (3) 2.5 µL of 4-fold final concentration of Tag1 SOS1 solution was added to the 384-well plate; (4) 4-fold final concentration of Tag2 KRAS^G12C solution was prepared using Diluent buffer; (5) 2.5 µL of 4-fold final concentration of Tag2 KRAS^G12C solution was added to compound wells and positive control wells, respectively; 2.5 µL of diluent buffer was added to negative control wells; (6) the 384-well plate was centrifuged at 1000 rpm for 30 seconds, shaken and mixed, and incubated at room temperature for 15 min; (7) 1-fold final concentration of Anti Tag1 TB3+ solution and 1-fold final concentration of Anti Tag2 XL665 solution were prepared with Detection buffer, and 5 µL of the mixture was added to each well after mixing the two solutions; (8) the 384-well plate was centrifuged at 1000 rpm for 30 seconds, shaken and mixed, and incubated at room temperature for 120 minutes; (9) the Envision enzyme marker was used to read
Em665/620; (10) data analysis, calculation formula; where Min signal is the mean value of negative control wells, Max signal is the mean value of positive control wells.The log value of concentration was used as the X-axis and the percentage inhibition as the Y-axis to fit the quantitative efficacy curve using the log(inhibitor) vs. response Variable slope of the quantitative efficacy curve of the analytical software GraphPad Prism 5 to derive the IC50 value of each compound on the enzyme activity.The fitting formula was: Y=Bottom+(Top Bottom)/(1+10^A((LogIC50X)^∗ HillSlope)).

[1] = tested on: NCI-H358 (lung cancer) cells; test: Proliferation test method 1 (2D, MTT), NCI-H358; format: cell-based; details: Homo sapiens, 5-7 days, read-out: IC50 proliferation inhibitory activity against NCI-H358
Experimental: Test method 1 (2D):NCI-H358 (lung cancer) and MiaPaca-2 cells (pancreatic cancer) cells (100 µL/well, 20,000 cells/mL) were inoculated in 96-well culture plates supplemented with 10% fetal bovine serum and 1% penicillin/streptomycin sulfate, respectively.Using 0.5% dimethyl sulfoxide as a blank control, cells were treated with a solution of the compound to be tested at a starting concentration of 10 µM, tripled diluted testing solution of the compound in eight gradients were used to treat cells, and then incubated in a 5% CO2 incubator for a certain period of time (5-7 days).At the end of incubation, 10 µL of MTT stock solution (5 mg/mL) was added to each well.The culture plates were incubated at 37° C. for 4 h and then the medium was removed.Dimethyl sulfoxide (100 µL) was added to each well and then shaken sufficiently. The absorbance of the product formazanwas measured at 570 nm on the Thermo Scientific Varioskan Flash multimode reader.IC50 values were obtained by fitting dose-response data into a three-parameter nonlinear regression model using GraphPad Prism 6.0 software.

[2] = tested on: phosphorylated ERK levels of NCI-H358; test: ERK phosphorylation (western blot), H358; format: cell-based; details: Homo sapiens, 3 h
Experimental: (§1) Test method 3 (ERK phosphorylation): Miapaca-2 or H358 cells were inoculated at certain concentrations in 96-well plates and incubated overnight at 37° C., 5% CO2 in a cell culture incubator, and serial dilutions of the test compound (5 concentrations, 3-fold dilution) were added to the plates the next day for 24 h (Miapaca-2) or 3 h (H358), then lysis solution containing protease and phosphatase inhibitor were added to lyse the cells to extract proteins and western blot method was used to detect the level of p-ERK.

[3] = tested on: phosphorylated ERK levels of MiaPaca-2; test: ERK phosphorylation (western blot), MiaPaca-2; format: cell-based; details: Homo sapiens, MIA PaCa-2, 24 h
Experimental: as §1

[4] = Metabolic stability assay, rat liver microsomes; format: in vitro ADME; details: rat liver microsomes 0.5 mg/mL, 1 µM compound, read-out: Liver microsomal stability (T½ /min) Rat
Experimental: (§2) Metabolic stability assay: A warm incubation for metabolic stability was performed with a system of 150 µL of liver microsomes (final concentration 0.5 mg/mL) containing NADPH (final concentration 1 mM), 1 µM of the test compound and positive control midazolam or negative control atenolol, and the reaction was terminated with acetonitrile containing tinidazole at 0 min, 5 min, 10 min and 30 min, respectively. The reaction was vortexed for 10 min and centrifuged at 15000 rmp for 10 min, and 50 µL of supernatant was taken into the 96-well plate for sampling. The metabolic stability of the compound was calculated by measuring the relative reduction of the drugs.

[5] = Metabolic stability assay, monkey liver microsomes; format: in vitro ADME; details: monkey liver microsomes 0.5 mg/mL, 1 µM compound, read-out: Liver microsomal stability (T½ /min) monkey
Experimental: as §2

CYP2C19 = target: T2, CYP2C19 (Homo sapiens, UniProt P33261); test: Direct inhibition test (DI test), CYP2C19; format: in vitro ADME; details: human liver microsomes
T2 construct: a system of 100 µL of human liver microsomes (final concentration 0.2 mg/mL); from tissue; host or cells: human liver microsomes
T2 sequence (P33261 whole entry): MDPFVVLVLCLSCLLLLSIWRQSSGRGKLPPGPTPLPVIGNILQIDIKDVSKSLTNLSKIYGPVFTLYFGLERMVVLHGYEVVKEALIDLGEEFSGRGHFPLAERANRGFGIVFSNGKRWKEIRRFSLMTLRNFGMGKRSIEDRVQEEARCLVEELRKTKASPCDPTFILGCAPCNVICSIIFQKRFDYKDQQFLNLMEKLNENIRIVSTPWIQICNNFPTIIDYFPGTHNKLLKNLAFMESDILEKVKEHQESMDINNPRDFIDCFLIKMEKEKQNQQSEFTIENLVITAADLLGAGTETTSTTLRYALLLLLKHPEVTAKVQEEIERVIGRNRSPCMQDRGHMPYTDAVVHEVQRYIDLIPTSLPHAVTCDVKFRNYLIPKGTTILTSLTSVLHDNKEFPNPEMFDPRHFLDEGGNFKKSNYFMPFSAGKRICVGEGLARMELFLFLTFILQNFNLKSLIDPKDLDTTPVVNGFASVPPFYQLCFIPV
Experimental: (§3) Direct inhibition test (DI test): direct inhibition warm incubation was performed with a system of 100 µL of human liver microsomes (final concentration 0.2 mg/mL) containing NADPH (final concentration 1 mM), 10 µM compound, positive inhibitor cocktail (ketoconazole 10 µM, quinidine 10 µM, sulfobenzyrazole 100 µM, α-naphthoflavone 10 µM, tranylcypromine 1000 µM), a negative control (BPS with 0.1% DMSO) and a mixed probe substrate (midazolam 10 µM, testosterone 100 µM, dextromethorphan 10 µM, diclofenac 20 µM, phenacetin100 µM, mephenytoin100 µM), and the reaction was terminated after a warm incubation for 20 min.The relative enzyme activity was calculated by measuring the relative amount of metabolites produced.

CYP3A4 = target: T3, CYP3A4 (Homo sapiens, UniProt P08684); test: Direct inhibition test (DI test), CYP3A4; format: in vitro ADME; details: human liver microsomes
T3 construct: a system of 100 µL of human liver microsomes (final concentration 0.2 mg/mL); from tissue; host or cells: human liver microsomes
T3 sequence (P08684 whole entry): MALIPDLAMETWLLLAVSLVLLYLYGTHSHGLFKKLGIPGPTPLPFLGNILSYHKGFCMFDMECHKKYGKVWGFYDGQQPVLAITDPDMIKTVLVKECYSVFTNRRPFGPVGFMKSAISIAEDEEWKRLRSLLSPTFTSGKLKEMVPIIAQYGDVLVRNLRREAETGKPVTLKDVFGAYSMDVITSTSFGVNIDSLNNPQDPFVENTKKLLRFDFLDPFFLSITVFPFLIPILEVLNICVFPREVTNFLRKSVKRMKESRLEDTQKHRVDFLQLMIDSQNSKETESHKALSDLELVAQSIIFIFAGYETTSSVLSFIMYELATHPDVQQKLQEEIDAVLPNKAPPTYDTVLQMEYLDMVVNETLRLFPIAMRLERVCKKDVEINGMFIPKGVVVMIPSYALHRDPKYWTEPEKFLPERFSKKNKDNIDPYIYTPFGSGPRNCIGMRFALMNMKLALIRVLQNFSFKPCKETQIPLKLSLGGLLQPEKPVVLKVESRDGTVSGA
Experimental: as §3

hERG potassium channels = hERG potassium channels (Homo sapiens, UniProt Q12809); test: hERG inhibition test; format: cell-based; details: highest test concentration 40 µM
Sequence of hERG potassium channels (Q12809 whole entry): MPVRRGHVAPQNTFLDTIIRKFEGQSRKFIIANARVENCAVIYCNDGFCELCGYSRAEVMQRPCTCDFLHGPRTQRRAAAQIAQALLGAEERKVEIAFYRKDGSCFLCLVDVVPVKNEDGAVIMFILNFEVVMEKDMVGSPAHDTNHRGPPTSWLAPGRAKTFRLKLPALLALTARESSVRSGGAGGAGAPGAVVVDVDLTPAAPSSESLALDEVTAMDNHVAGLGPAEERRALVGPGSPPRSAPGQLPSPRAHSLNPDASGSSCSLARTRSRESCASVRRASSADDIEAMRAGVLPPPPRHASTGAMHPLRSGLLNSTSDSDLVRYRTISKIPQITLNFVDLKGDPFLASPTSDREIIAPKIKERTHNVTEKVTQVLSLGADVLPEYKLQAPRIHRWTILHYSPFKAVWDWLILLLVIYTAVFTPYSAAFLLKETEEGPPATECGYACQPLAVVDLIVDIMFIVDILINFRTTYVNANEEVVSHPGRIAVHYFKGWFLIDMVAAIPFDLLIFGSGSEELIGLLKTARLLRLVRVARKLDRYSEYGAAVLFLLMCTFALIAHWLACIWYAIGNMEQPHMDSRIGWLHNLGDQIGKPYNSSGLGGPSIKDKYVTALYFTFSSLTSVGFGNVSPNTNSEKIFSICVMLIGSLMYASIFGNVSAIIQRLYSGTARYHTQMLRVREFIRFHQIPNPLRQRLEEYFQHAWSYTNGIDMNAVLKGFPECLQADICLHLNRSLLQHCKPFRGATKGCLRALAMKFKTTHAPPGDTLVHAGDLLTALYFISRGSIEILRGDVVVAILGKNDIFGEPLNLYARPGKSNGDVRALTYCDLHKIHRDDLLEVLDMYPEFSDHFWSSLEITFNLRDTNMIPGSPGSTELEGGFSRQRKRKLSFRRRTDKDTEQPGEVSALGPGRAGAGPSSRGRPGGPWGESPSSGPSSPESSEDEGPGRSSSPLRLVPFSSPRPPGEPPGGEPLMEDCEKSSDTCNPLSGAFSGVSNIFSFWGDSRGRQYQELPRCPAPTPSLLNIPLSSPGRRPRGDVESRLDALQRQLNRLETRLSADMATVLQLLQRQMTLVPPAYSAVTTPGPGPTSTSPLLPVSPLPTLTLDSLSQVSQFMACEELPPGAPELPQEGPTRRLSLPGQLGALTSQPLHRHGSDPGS

[6] = In vivo pharmacokinetic parameter testing in mice; set-up: species or system ICR mice; details: for AUC(0-t) / clearance / half-life: male, ICR, mouse, plasma, iv(1 mg/kg); for AUC(0-t): read-out: Below the curve and AUC0-t; for clearance: read-out: Clearance rate Cl; for half-life: read-out: Half-life T½ (converted)

T1 sequence (P01116 1-188 isoform P01116-2 G12C): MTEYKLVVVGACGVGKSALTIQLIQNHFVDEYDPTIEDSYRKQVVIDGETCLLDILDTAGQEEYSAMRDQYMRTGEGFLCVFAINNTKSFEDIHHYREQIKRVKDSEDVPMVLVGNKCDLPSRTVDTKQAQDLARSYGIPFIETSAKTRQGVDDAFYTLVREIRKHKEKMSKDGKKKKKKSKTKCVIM

Structure (SMILES)	IC50 (KRAS^G12C/SOS1)	IC50 [1]	IC50 [2]	IC50 [3]	half-life at 1 µM [4]	half-life at 1 µM [5]	IC50 (CYP2C19)	IC50 (CYP3A4)	IC50 (hERG potassium channels)	pharmacokinetic properties in mice compared to comparative compound 1 ([6]; in words)	AUC(0-t) [6]	clearance [6]	half-life [6]	AUC compared to the comparative compound 1 ([6]; in words)	clearance rate Cl compared to the comparative compound 1 ([6]; in words)	in vivo metabolic half-life compared to the comparative compound 1 ([6]; in words)
C=CC(=O)N1CCN(c2c(C#N)c(N3CC(N(C)C)C3)nc3c(F)c(-c4ccc(F)c5sc(N)nc45)c(Cl)cc23)CC1 [Example 21, 4-(4-acryloyl Piperazin-1-yl)-7-(2-Amino-7-Fluorobenzo [d] Thiazol-4-yl) -6-Chloro-2-(3-(Dimethylamino) Azetidine-1-yl)-8-Fluoroquinolin-3 -Cyano]	< 50 nM	< 100 nM	< 500 nM	< 500 nM	> 30 min	> 30 min	> 10000 nM	> 10000 nM	> 20000 nM	significantly better	1.29 ± 0.07 µM·h	21.6 ± 1.05 mL/min/kg	78 min			
C=CC(=O)N1CCN(c2c(C#N)cnc3c(F)c(-c4ccc(F)c5sc(N)nc45)c(Cl)cc23)CC1 [Example 8]	< 50 nM	< 100 nM	< 500 nM	< 500 nM	> 30 min	> 30 min	> 10000 nM	> 10000 nM	> 20000 nM	significantly better	2.85 ± 0.363 µM·h	11.5 ± 1.52 mL/min/kg	31.2 min	significantly increased	significantly lower	
C=CC(=O)N1C[C@@H]2C(=O)N(C)c3cnc4c(F)c(-c5ccc(F)c6sc(N)nc56)c(Cl)cc4c3N2C[C@H]1C (single isomer, unassigned) [Example 17-1]	50 to 200 nM				> 30 min		> 10000 nM	> 10000 nM	> 20000 nM	significantly better	3.31 ± 0.187 µM·h	9.04 ± 0.5 mL/min/kg	66 min	significantly increased	significantly lower	
C=CC(=O)N1CCN(c2c(C#N)c(OC[C@@H]3CCCN3C)nc3c(F)c(-c4ccc(F)c5sc(N)nc45)c(Cl)cc23)CC1 [Example 3, 4-(4-Piperazinylacryloylpiperazin-1-yl)-7-(2-Amino-7-Fluorobenzo[d]Thiazol-4-yl)-6-Chloro-8-Fluoro-2-(((S)-1-Methylpyrrolidin-2-Yl)Methoxy)Quinoline-3-Cyano]	< 50 nM	< 100 nM	< 500 nM	< 500 nM		> 30 min	> 10000 nM	> 10000 nM	> 20000 nM	significantly better	4.09 ± 0.373 µM·h	6.35 ± 0.67 mL/min/kg	390 min	significantly increased	significantly lower	significantly longer
C=CC(=O)N1CCN(c2nc(OC[C@@H]3CCCN3C)nc3c(F)c(-c4ccc(F)c5sc(N)nc45)c(Cl)cc23)C[C@H]1C [Example 11, 1-((2R)-4-(7-(2-Amino-7-Fluorobenzo [d] Thiazol-4-yl) -6-Chloro-8-Fluoro-2-(((S)-1-Methylpyrrolidin-2-yl) Methoxy) Quinazolin-4-yl)-2-Methylpiperazin-1-yl) Prop-2-En-1-One]	50 to 200 nM	< 100 nM	< 500 nM	< 500 nM	> 30 min		> 10000 nM	> 10000 nM	> 20000 nM							
